According to patent publication US12162836B2, “N-acyl-{4-[(4-aryl-phenyl)sulfonylmethyl]piperidine} compounds and their therapeutic use” (Modern Biosciences Limited, priority 2019, dated 2024):

Key:
[1] = tested on: collagen-induced arthritis in DBA/1j mice; assay: Mouse Collagen-Induced Arthritis; format: in vivo; conditions: 10 mg/kg/day, once daily for 14 days, oral gavage; arthritic index vs control
Procedure: Seven- to eight-week-old male DBA/1j mice were used for all procedures. Animals were housed in groups of 10, and were maintained at 21° C.±2° C. on a 12-hour light/dark cycle with food and water ad libitum. Complete Freund's adjuvant (CFA) was prepared by emulsifying bovine type II collagen at 4 mg/mL with a 4 mg/mL suspension of Mycobacterium tuberculosis H37Ra in Incomplete Freund's Adjuvant (IFA) (0.85 mL paraffin oil and 0.15 mL mannide monooleate) in a 1:1 (v/v) ratio. All mice were immunised subcutaneously with 200 μg of bovine type II collagen in CFA. 21 days later, all mice were immunised subcutaneously with 100 μg of bovine type II collagen in IFA. The mice started to develop signs and symptoms of arthritis following the ‘booster’ immunisation.
For macroscopic assessment of arthritis, the following signs were monitored in each paw of each mouse three times per week and summed to generate the Arthritic Index (A1) (the maximum A1 for one animal is 16): • 0=no visible effects of arthritis. • 1=oedema and/or erythema of 1 digit. • 2=oedema and/or erythema of 2 digits. • 3=oedema and/or erythema of more than 2 digits. • 4=severe arthritis of entire paw and digits.
Animals were sorted into treatment groups with a mean arthritic index of 2.5 and then dosed once daily for 14 days with compound: by oral gavage for test compounds, or by subcutaneous injection at a dose of 10 mg/kg for the positive control, etanercept. After completion of the experiment, the mice were sacrificed.
The data were analysed by generating an average of the arthritic index across each treatment group. The mean arthritic index was then compared to the arthritic index of control (untreated) animals using the following formula to generate a percentage inhibition of disease.

[2] = tested on: human, rat (Sprague Dawley) and dog (Beagle) hepatocytes; assay: Metabolite identification (biaryl metabolite detection) in cryopreserved hepatocytes; format: in vitro ADME; conditions: primary hepatocyte incubations, 10 μM, final time point (60 minutes)
Procedure: The formation of metabolites in humans, rats and dogs was assessed to determine the propensity of the compounds to form a biaryl metabolite.
In vitro studies on the metabolism of drugs are usually performed using liver preparations such as isolated perfused livers, liver slices, liver homogenates, isolated cryopreserved hepatocytes, subcellular liver fractions (S9, cytosol, and microsomes), or recombinant metabolizing enzymes overexpressed on non-expressing cell systems, particularly CYP enzymes. Cryopreserved hepatocytes contain all the enzymes and co-factors needed for phase I and phase II drug metabolism, making them an excellent in vitro model for assessment of drug metabolic stability and metabolite profiling.
Cryopreserved human, rat (Sprague Dawley) and dog (Beagle) hepatocytes were revived from liquid nitrogen and plated at a seeding density of 2×10^6 cells/mL (>95% viability). Following a 15 minute incubation at 37° C. a sample was removed for a zero (0) minute time point assessment. […]
All samples were processed for analysis by protein precipitation using 500 μL ice-cold acetonitrile and analysed with a fit-for-purpose LC-MS/MS method.
At the completion of the study, the results were expressed as detection of the biaryl metabolite at the final time point.

hERG ion channel = hERG ion channel (Homo sapiens (Human), UniProt Q12809); assay: hERG Ion Channel binding assay (3H astemizole displacement)
Method in brief: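 Membranes from stably transfected hERG-HEK293 cells incubated with 1.5 nM ³H-astemizole ± test compound in HEPES buffer pH 7.4 (0.1% BSA, 5 mM KCl, 130 mM NaCl) at 25° C for 60 min. Bound ligand measured by filtration and scintillation counting; reported as % displacement (0% none, 100% complete).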

Sequence of hERG ion channel (Q12809 whole entry): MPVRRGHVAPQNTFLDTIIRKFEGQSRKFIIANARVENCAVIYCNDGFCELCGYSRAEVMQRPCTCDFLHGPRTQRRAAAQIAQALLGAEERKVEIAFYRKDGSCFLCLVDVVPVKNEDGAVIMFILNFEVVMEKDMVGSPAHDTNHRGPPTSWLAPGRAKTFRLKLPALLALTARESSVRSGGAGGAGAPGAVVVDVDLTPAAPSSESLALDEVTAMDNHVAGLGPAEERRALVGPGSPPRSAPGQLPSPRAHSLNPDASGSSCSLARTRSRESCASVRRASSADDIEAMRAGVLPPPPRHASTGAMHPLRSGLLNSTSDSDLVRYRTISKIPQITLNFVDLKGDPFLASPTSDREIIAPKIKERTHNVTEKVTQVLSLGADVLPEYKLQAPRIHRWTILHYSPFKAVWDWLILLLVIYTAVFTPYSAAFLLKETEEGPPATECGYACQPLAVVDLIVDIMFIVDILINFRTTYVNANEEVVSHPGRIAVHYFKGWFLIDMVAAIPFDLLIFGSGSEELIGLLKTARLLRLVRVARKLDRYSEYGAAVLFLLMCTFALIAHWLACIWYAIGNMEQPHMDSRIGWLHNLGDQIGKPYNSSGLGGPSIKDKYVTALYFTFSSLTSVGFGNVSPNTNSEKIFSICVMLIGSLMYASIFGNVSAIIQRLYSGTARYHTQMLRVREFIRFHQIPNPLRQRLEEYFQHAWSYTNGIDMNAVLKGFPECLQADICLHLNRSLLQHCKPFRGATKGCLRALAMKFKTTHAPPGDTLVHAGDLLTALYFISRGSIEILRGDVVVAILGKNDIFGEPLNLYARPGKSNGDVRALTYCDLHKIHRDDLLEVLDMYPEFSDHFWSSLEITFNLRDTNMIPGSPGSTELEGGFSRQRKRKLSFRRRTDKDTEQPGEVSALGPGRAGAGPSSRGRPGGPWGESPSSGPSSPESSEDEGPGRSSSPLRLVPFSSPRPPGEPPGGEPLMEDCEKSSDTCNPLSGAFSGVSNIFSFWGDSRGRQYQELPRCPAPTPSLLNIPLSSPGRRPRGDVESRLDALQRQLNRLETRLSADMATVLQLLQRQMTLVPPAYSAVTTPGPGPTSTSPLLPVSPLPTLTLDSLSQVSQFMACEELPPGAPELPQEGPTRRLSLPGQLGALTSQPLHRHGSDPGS

Structure (SMILES)	% inhibition of disease [1]	Biaryl metabolite detected? [2]	cardiac safety profile, hERG (in words) (hERG ion channel)
CC1(O)CCC(NS(=O)(=O)c2ccc(-c3ccc(F)cc3F)cc2)CC1 (centres unmarked) [ABD899, reference compound]	77%		
CC(=O)N1CCC(CS(=O)(=O)c2ccc(-c3ccc(F)cc3F)cc2)CC1 [NASMP-01, 1-(4-(((2′,4′-Difluoro-[1,1′-biphenyl]-4-yl)sulfonyl)methyl)piperidin-1-yl)ethan-1-one]	64%	No	particularly positive profile
CC(=O)N1CCC(CS(=O)(=O)c2ccc(-c3c(F)cccc3F)cc2)CC1 [NASMP-09, 1-(4-(((2′,6′-Difluoro-[1,1′-biphenyl]-4-yl)sulfonyl)methyl)piperidin-1-yl)ethan-1-one]			particularly positive profile
